# Data from publication PMC4805082, “Seizure control by decanoic acid through direct AMPA receptor inhibition” (Brain, 2015).
# How the values were obtained:
# [1] = tested on: epileptiform activity (burst discharges) in hippocampal slices induced by pentylenetetrazol; assay: In vitro seizure model, pentylenetetrazol-induced epileptiform activity in hippocampal slices; assay type: cell-based, rat; details: 1 mM; pentylenetetrazol 2 mM, K+ 6 mM
# Experimental: Male Sprague-Dawley rats (postnatal Days 19–30) were sacrificed using an overdose of isoflurane or pentobarbitone (500 mg/kg). After decapitation the brain was rapidly removed, the hippocampus or entorhinal cortex-hippocampus slices was dissected from the brain and […] thick transverse slices were prepared on a VT1200S vibratome (Leica) or Vibratome (Vibratome® 1500 sectioning system, Intracell). The slicing was performed in ice-cold sucrose-based solution containing (in mM): 75 sucrose, 87 NaCl, 22 glucose, 2.5 KCl, 7 MgCl2, 1.25 NaH2PO4, 0.5 CaCl2 and 25 NaHCO3, pH 7.4, 315–330 mOsm equilibrated with 95% O2 plus 5% CO2. The slices were then stored in a continuously oxygenated humidified interface holding chamber containing oxygenated artificial CSF (in mM): 120 NaCl, 22 glucose, 2.5 KCl, 1.3 MgSO4, 1 NaH2PO4, 25 NaHCO3 and 2.5 CaCl2, pH 7.4 296 mOsm, where they recovered for at least 1 h before use.
# During the experiment, slices were transferred from the interface chamber into a submerged recording chamber, designed to optimize wash-in and wash-out of drugs, and continuously perfused using gravity feed at 3–6 ml/min with prewarmed (36°C) oxygenated artificial CSF (95% O2, 5% CO2). Field potentials were recorded with a glass microelectrode (1–2 MΩ) filled with artificial CSF solution placed in stratum radiatum of CA1 and were filtered at 1 kHz and digitized at 2 kHz (using an npi EXT-02F extracellular amplifier recorded with WinEDR software). In the pentylenetetrazol model, the epileptiform (paroxysmal) activity was induced by application of pentylenetetrazol (2 mM) to the perfusate and [K^+] was increased (to 6 mM); in low-Mg^2+ model, the epileptiform activity was elicited by using Mg^2+-free artificial CSF. Once the frequency of the paroxysmal activity was stable for at least 10 min, compounds were applied to the perfusate for the following 40 min, and washed out for a remaining 20 min. The anticonvulsant effects were evaluated by measuring the change in the frequency of the discharges at minute intervals. The discharge frequency was then averaged every 5 min during the experiment and normalized to baseline. The compounds applied in this study included: 1% dimethyl sulphoxide (DMSO), acetone (10 mM, Sigma), (±)-sodium 3-hydroxybutyrate (BHB) (10 mM, Sigma), and decanoic acid (1 mM, Alfa Aesar Pty). Acetone and decanoic acids were prepared as 1000× stocks in DMSO, and BHB was prepared as 100× stock. Stocks were dissolved in artificial CSF to achieve their final concentrations during experiments, and where applicable, experiments included constant levels of DMSO.
# AMPA receptor GluA1/2 = target: T1, AMPA receptor GluA1/2 (Homo sapiens, UniProt P42261+P42262); assay: Two-electrode voltage clamp, AMPA receptor GluA1/2 expressed in Xenopus oocytes; assay type: cell-based
# T1 construct: expressed in transfected cells; host or cells: Xenopus laevis oocytes injected with cRNA (1:1 mix)
# T1 sequence (P42261 19-906 isoform P42261-2 limits assumed): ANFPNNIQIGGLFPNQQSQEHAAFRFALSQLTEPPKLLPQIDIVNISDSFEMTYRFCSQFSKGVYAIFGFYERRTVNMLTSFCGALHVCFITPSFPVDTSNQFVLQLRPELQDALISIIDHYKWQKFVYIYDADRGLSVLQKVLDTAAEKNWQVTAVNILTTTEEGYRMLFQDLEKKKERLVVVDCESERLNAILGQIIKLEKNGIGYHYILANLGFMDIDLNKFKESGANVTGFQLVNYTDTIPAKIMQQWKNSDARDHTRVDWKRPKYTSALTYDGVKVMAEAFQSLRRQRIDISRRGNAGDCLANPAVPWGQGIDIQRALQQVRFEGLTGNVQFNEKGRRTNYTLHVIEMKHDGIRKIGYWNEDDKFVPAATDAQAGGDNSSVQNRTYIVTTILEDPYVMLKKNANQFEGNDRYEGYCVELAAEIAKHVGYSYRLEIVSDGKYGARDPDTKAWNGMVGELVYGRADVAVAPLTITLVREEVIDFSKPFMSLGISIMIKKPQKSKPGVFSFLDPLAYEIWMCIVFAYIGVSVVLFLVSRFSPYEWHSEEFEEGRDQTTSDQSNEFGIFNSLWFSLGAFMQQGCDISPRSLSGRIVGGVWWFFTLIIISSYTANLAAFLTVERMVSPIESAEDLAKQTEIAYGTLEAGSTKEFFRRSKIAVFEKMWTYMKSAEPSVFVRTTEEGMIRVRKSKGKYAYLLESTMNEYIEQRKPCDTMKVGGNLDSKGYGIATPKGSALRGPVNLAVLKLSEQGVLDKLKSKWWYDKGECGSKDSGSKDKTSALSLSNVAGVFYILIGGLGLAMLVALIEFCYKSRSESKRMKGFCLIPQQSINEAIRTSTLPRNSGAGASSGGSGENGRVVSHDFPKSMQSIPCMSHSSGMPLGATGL
# T1 sequence (P42262 22-883 isoform P42262-2 limits assumed): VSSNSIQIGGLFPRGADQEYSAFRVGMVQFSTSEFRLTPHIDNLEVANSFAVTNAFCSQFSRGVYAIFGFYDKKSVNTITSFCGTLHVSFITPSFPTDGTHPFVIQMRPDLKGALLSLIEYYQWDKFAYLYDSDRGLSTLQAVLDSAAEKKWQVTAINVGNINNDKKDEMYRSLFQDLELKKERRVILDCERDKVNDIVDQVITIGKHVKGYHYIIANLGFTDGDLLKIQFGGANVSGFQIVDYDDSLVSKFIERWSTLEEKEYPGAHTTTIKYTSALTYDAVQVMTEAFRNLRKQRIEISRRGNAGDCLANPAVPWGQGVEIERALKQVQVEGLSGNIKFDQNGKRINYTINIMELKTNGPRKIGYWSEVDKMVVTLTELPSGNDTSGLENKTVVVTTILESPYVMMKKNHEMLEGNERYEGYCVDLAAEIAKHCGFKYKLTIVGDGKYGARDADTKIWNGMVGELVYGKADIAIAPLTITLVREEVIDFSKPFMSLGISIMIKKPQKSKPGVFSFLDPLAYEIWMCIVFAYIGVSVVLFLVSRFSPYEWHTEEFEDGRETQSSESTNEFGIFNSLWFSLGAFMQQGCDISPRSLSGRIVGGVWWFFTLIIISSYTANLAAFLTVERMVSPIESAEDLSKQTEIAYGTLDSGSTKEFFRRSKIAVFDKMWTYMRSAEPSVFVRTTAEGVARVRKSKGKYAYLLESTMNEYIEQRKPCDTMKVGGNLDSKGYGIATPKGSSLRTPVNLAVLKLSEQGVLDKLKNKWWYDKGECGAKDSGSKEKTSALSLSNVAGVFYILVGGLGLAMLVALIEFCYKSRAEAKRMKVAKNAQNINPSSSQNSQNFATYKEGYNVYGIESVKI
# Experimental: The AMPA receptor (flip isoform) cDNAs inserted in a SP6 polymerase expression vector (pSP6T) were a generous gift from Prof. Ralf Schoepfer (NPP, UCL). […] AMPA receptor cRNAs were mixed in a nominal 1:1 ratio and ∼5 ng was injected per oocyte.
# Xenopus laevis oocytes were purchased from the European Xenopus Resource Centre, University of Portsmouth. Stage V to VI oocytes were mechanically dissected and then subjected to gentle shaking for ∼30–50 min at room temperature with modified Barth’s solution (in mM): 88 NaCl, 1 KCl, 2.4 NaHCO3, 0.82 MgCl2, 0.77 CaCl2, 15 Tris-Cl, adjusted to pH 7.4 with NaOH (Sigma-Aldrich), supplemented with 50 IU/ml penicillin and 50 µg/ml streptomycin (Invitrogen) and 50 µg/ml tetracycline (Sigma-Aldrich) and 1% collagenase (type 1A). Healthy oocytes were manually defolliculated and the injections of cRNA for homomeric subunits alone (GluA1), or heteromeric mixtures of two subunits together (GluA1/GluA2 or GluA2/GluA3) were made using an automated Drummond Nanoinject II injector. The oocytes were then incubated at 17°C in modified Barth’s solution for at least 48 h before use in electrophysiological recordings.
# Experiments were performed at room temperature (∼21–23°C). […]
# [2] = design: method as in Wlaz et al., 2012; details: mice, gastric gavage 30 mmol/kg; ref Wlaz et al., 2012; cited from earlier work
structure (smiles),measurement,setting,value
CCCCCCCCCC(=O)O [decanoic acid],effect on epileptiform activity,[1],completely blocked
same,IC50,AMPA receptor GluA1/2,1.16 mM
same,brain concentration,[2],up to 240 µM
same,brain concentration as share of serum levels,[2],60–80%
